Patent US10526330B2, “JAK kinase inhibitor compounds for treatment of respiratory disease” (THERAVANCE BIOPHARMA R&D IP, LLC, priority 2015, dated 2020)

Key:
[1] = tested on: IL-13 induced STAT6 phosphorylation in BEAS-2B human lung epithelial cells; experiment: AlphaScreen JAK1 cellular potency assay in BEAS-2B cells; assay type: cell-based
[2] = Pharmacokinetics in plasma and lung in mouse; assay type: in vivo; conditions: oral aspiration, lung AUC (μg hr/g) to plasma AUC (μg hr/mL)
Method: Plasma and lung levels of test compounds and ratios thereof were determined in the following manner. BALB/c mice from Charles River Laboratories were used in the assay. Test compounds were individually formulated in 20% propylene glycol in pH 4 citrate buffer at a concentration of 0.2 mg/mL and 50 uL of the dosing solution was introduced into the trachea of a mouse by oral aspiration. At various time points (typically 0.167, 2, 6, 24 hr) post dosing, blood samples were removed via cardiac puncture and intact lungs were excised from the mice. Blood samples were centrifuged (Eppendorf centrifuge, 5804R) for 4 minutes at approximately 12,000 rpm at 4° C. to collect plasma. Lungs were padded dry, weighed, and homogenized at a dilution of 1:3 in sterile water. Plasma and lung levels of test compound were determined by LC-MS analysis against analytical standards constructed into a standard curve in the test matrix. A lung to plasma ratio was determined as the ratio of the lung AUC in μg hr/g to the plasma AUC in μg hr/mL, where AUC is conventionally defined as the area under the curve of test compound concentration vs. time.

IL-13 induced pSTAT6 = experiment: Murine model of IL-13 induced pSTAT6 induction in lung tissue; assay type: in vivo; conditions: mouse lung; for lung concentration smaller than that of the corresponding compound of the invention by a factor: pharmacodynamic assay, versus Examples 1, 7, 13, 6
Method: Il-13 is an important cytokine underlying the pathophysiology of asthma (Kudlacz et al. Eur. J. Pharmacol, 2008, 582, 154-161). IL-13 binds to cell surface receptors activating members of the Janus family of kinases (JAK) which then phosphorylate STAT6 and subsequently activates further transcription pathways. In the described model, a dose of IL-13 was delivered locally into the lungs of mice to induce the phosphorylation of STAT6 (pSTAT6) which is then measured as the endpoint.
Adult balb/c mice from Harlan were used in the assay. On the day of study, animals were lightly anesthetized with isoflurane and administered either vehicle or test compound (0.5 mg/mL, 50 μL total volume over several breaths) via oral aspiration. Animals were placed in lateral recumbency post dose and monitored for full recovery from anesthesia before being returned to their home cage. Four hours later, animals were once again briefly anesthetized and challenged with either vehicle or IL-13 (0.03 μg total dose delivered, 50 μL total volume) via oral aspiration before being monitored for recovery from anesthesia and returned to their home cage. One hour after vehicle or IL-13 administration, lungs were collected for both pSTAT6 detection using an anti-pSTAT6 ELISA (rabbit mAb capture/coating antibody; mouse mAb detection/report antibody: anti-pSTAT6-pY641; secondary antibody: anti-mouse IgG-HRP) and analyzed for total drug concentration as described above in Assay 4.
Selected compounds of the invention were tested in the assay. Activity in the model is evidenced by a decrease in the level of pSTAT6 present in the lungs of treated animals at 5 hours compared to the vehicle treated, IL-13 challenged control animals. The difference between the control animals which were vehicle-treated, IL-13 challenged and the control animals which were vehicle-treated, vehicle challenged dictated the 0% and 100% inhibitory effect, respectively, in any given experiment.

JAK1 = JAK1 (Homo sapiens (Human), UniProt P23458); experiment: LanthaScreen JAK1 biochemical assay; conditions: versus Examples 1, 7, 13, 6
Sequence of JAK1 (P23458 whole entry): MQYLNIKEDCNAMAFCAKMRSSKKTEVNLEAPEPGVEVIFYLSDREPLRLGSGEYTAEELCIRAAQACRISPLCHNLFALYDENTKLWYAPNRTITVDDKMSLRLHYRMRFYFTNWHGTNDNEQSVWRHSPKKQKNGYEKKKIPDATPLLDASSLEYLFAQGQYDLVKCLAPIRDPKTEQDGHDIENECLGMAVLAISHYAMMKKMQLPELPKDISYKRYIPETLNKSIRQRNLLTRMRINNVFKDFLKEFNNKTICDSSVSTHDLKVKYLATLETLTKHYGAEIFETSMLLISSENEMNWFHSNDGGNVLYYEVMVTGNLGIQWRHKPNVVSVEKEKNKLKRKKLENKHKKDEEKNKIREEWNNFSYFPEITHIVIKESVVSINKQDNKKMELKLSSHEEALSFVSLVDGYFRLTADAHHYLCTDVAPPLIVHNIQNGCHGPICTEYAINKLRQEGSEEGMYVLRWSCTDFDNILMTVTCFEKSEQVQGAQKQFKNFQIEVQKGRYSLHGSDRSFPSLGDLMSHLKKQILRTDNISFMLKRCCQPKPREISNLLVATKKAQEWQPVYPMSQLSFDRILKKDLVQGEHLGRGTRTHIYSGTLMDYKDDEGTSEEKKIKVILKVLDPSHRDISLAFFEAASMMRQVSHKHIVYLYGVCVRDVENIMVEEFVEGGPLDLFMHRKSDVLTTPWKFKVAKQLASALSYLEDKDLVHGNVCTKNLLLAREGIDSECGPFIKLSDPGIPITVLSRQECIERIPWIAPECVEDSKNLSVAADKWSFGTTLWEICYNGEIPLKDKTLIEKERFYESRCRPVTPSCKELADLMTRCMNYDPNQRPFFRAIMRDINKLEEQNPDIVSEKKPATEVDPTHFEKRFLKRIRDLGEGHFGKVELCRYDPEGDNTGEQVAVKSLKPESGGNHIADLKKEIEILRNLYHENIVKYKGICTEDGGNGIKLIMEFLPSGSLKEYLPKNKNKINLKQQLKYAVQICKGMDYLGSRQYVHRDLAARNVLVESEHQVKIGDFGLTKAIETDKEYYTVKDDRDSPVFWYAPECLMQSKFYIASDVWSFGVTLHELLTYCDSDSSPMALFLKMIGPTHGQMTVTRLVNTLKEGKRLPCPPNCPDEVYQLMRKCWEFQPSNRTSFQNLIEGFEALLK

[3] = Dynamic moisture sorption assessment; assay type: physicochemical
Method: Dynamic moisture sorption (DMS) measurement was performed using a VTI atmospheric microbalance, SGA-100 system (VTI Corp., Hialeah, Fla. 33016). A weighed sample was used and the humidity was lowest possible value (close to 0% RH) at the start of the analysis. The DMS analysis consisted of an initial drying step (˜0% RH) for 120 minutes, followed by two cycles of sorption and desorption with a scan rate of 5% RH/step over the humidity range of 5% RH to 90% RH. The DMS run was performed isothermally at 25° C.

CCc1cc(O)c(F)cc1-c1ccc2c(-c3nc4c([nH]3)CCN(CCNC3CC(OC)C3)C4)n[nH]c2c1 (centres unmarked) [Example 3-30]
BEAS-2B pIC50 [1]: A (A represents a pIC50 value ≥8 (IC50≤10 nM))

CCc1cc(O)c(F)cc1-c1ccc2c(-c3nc4c([nH]3)CCN(C[C@@H]3COCCN3)C4)n[nH]c2c1 [Example 14, (R)-5-Ethyl-2-fluoro-4-(3-(5-(morpholin-3-ylmethyl)-4,5,6,7-tetrahydro-1H-imidazo[4,5-c]pyridin-2-yl)-1H-indazol-6-yl)phenol]
Lung to Plasma ratio Assay 4 [2]: A (A denotes a ratio >100)

CCc1cc(O)c(F)cc1-c1ccc2c(-c3nc4c([nH]3)CCN(C3CN(C5CCS(=O)(=O)C5)C3)C4)n[nH]c2c1 (centres unmarked) [Example 1-15]
pSTAT6 inhibition in the pharmacodynamic assay (IL-13 induced pSTAT6): noted as exceptions

CCc1cc(O)c(F)cc1-c1ccc2c(-c3nc4c([nH]3)CCN(CCN(C)CC(C)C)C4)n[nH]c2c1 [Example 3-33]
Lung to Plasma ratio Assay 4 [2]: A (A denotes a ratio >100)

CCc1cc(O)c(F)cc1-c1ccc2c(-c3nc4c([nH]3)CCN(CCNC3CC(OC)C3)C4)n[nH]c2c1 (centres unmarked) [Example 8, 5-Ethyl-2-fluoro-4-(3-(5-(2-((3-methoxycyclobutyl)amino)ethyl)-4,5,6,7-tetrahydro-1H-imidazo[4,5-c]pyridin-2-yl)-1H-indazol-6-yl)phenol]
Lung to Plasma ratio Assay 4 [2]: A (A denotes a ratio >100)

CCc1cc(O)c(F)cc1-c1ccc2c(-c3nc4c([nH]3)CCN(CCC(C)C)C4)n[nH]c2c1 [Example C-2]
fold less potent than the corresponding compound of the invention in the enzyme assay (JAK1): 3 fold
lung concentration smaller than that of the corresponding compound of the invention by a factor (IL-13 induced pSTAT6): 52

CCc1cc(O)c(F)cc1-c1ccc2c(-c3nc4c([nH]3)CCN(C[C@@H]3CCCN3C)C4)n[nH]c2c1 [Example 11, (S)-5-ethyl-2-fluoro-4-(3-(5-((1-methylpyrrolidin-2-yl)methyl)-4,5,6,7-tetrahydro-1H-imidazo[4,5-c]pyridin-2-yl)-1H-indazol-6-yl)phenol]
Lung to Plasma ratio Assay 4 [2]: A (A denotes a ratio >100)

CCc1cc(O)c(F)cc1-c1ccc2c(-c3nc4c([nH]3)CCN(CC3CCCOC3)C4)n[nH]c2c1 (centres unmarked) [Example C-3]
fold less potent than the corresponding compound of the invention in the enzyme assay (JAK1): 6 fold
lung concentration smaller than that of the corresponding compound of the invention by a factor (IL-13 induced pSTAT6): 13

CCc1cc(O)c(F)cc1-c1ccc2c(-c3nc4c([nH]3)CCN(CC3CNC3)C4)n[nH]c2c1 [Example 14-7]
Lung to Plasma ratio Assay 4 [2]: A (A denotes a ratio >100)

CCc1cc(O)c(F)cc1-c1ccc2c(-c3nc4c([nH]3)CCN(CCN3CCC[C@@H]3C)C4)n[nH]c2c1 [Example 15, (S)-5-ethyl-2-fluoro-4-(3-(5-(2-(2-methylpyrrolidin-1-yl)ethyl)-4,5,6,7-tetrahydro-1H-imidazo[4,5-c]pyridin-2-yl)-1H-indazol-6-yl)phenol]
Lung to Plasma ratio Assay 4 [2]: A (A denotes a ratio >100)

CCc1cc(O)c(F)cc1-c1ccc2c(-c3nc4c([nH]3)CCN(C3CCN(C)CC3)C4)n[nH]c2c1 [crystalline hydrate, 5-ethyl-2-fluoro-4-(3-(5-(1-methylpiperidin-4-yl)-4,5,6,7-tetrahydro-1H-imidazo[4,5-c]pyridin-2-yl)-1H-indazol-6-yl)phenol]
hygroscopicity [3]: non-hygroscopic
weight gain (dynamic moisture sorption) ([3]; 5% to 90% relative humidity, 25° C.): less than 0.12%

CCc1cc(O)c(F)cc1-c1ccc2c(-c3nc4c([nH]3)CCN(C3CCC(C)CC3)C4)n[nH]c2c1 (centres unmarked) [Example C-4]
fold less potent than the corresponding compound of the invention in the enzyme assay (JAK1): 2.5 fold
lung concentration smaller than that of the corresponding compound of the invention by a factor (IL-13 induced pSTAT6): 23

CCc1cc(O)c(F)cc1-c1ccc2c(-c3nc4c([nH]3)CCN(C3CC(C)C3)C4)n[nH]c2c1 (centres unmarked) [Example C-1, 5-Ethyl-2-fluoro-4-(3-(5-(3-methylcyclobutyl)-4,5,6,7-tetrahydro-1H-imidazo[4,5-c]pyridin-2-yl)-1H-indazol-6-yl)phenol]
fold less potent than the corresponding compound of the invention in the enzyme assay (JAK1): 2 fold
lung concentration smaller than that of the corresponding compound of the invention by a factor (IL-13 induced pSTAT6): 36

CCc1cc(O)c(F)cc1-c1ccc2c(-c3nc4c([nH]3)CCN(CCNC3(C#N)CC3)C4)n[nH]c2c1 [Example 3-1]
pSTAT6 inhibition in the pharmacodynamic assay (IL-13 induced pSTAT6): noted as exceptions

CCc1cc(O)c(F)cc1-c1ccc2c(-c3nc4c([nH]3)CCN(C[C@H]3COCCN3)C4)n[nH]c2c1 [Example 13, (S)-5-Ethyl-2-fluoro-4-(3-(5-(morpholin-3-ylmethyl)-4,5,6,7-tetrahydro-1H-imidazo[4,5-c]pyridin-2-yl)-1H-indazol-6-yl)phenol]
Lung to Plasma ratio Assay 4 [2]: A (A denotes a ratio >100)
